The values that follow come from patent US20240166645A1, “PYRIDOPYRIMIDINONE DERIVATIVE, PREPARATION METHOD THEREFOR, AND USE THEREOF” (Wuhan Humanwell Innovative Drug Research and Development …, priority 2021, published 2024).

One may read the half-life as the time needed for the level to fall by half in the phase considered. Low readings indicate rapid decline, high ones slow decline. In general, IC50 refers to the concentration at which inhibition is half-maximal. High values mean weaker potency, low ones greater potency.

A short description of series [1]: Human liver microsome stability test. Type of series: in vitro ADME. Particulars: human liver microsomes; for Remaining percentage (%) of compound after incubation for 30 min: 37° C.; for half-life at 1 µM: human. As for the experimental part: The human liver microsome stability test was performed by incubating the compound and human liver microsomes in vitro. First, the compound to be tested was prepared into a 10 mM stock solution in DMSO solvent, and then the compound was diluted to 0.5 mM with acetonitrile. Human liver microsomes (Corning) were diluted with PBS into a microsome/buffer solution, and the solution was used to dilute 0.5 mM compound into a working solution, in which the concentration of the compound was 1.5 μM, and the concentration of human liver microsomes was 0.75 mg/mL. A deep-well plate was taken, 30 μL of the working solution was added per well, and then 15 μL of pre-heated 6 mM NADPH solution was added thereto to initiate a reaction, and the reaction was incubated at 37° C. At 0, 5, 15, 30 and 45 min of the incubation, 135 μL of acetonitrile was added to the corresponding wells to terminate the reaction. After the reaction was terminated with acetonitrile at the last time point of 45 min, the deep-well plate was vortexed and vibrated for 10 min (600 rpm/min), and then centrifuged for 15 min. After centrifugation, the supernatant was collected, and added with purified water in a ratio of 1:1 to perform LC-MS/MS detection. A ratio of a peak area of compound to a peak area of internal standard at each time point was obtained, and the peak area ratios of the compound at 5, 15, 30 and 45 min were compared with the peak area ratio at 0 min to calculate the remaining percentage of the compound at each time point. T1/2 was calculated by using GraphPad 5 software.
(Liver microsomes are a subcellular fraction often used to study metabolism.)

Series [2] in a line: Plasma protein binding by equilibrium dialysis, human plasma. It counts as in vitro ADME. The conditions noted are these: 37° C., read-out: Free fraction in plasma, Human (%). As for the experimental part: (§1) Plasma protein binding rate of compounds was detected by equilibrium dialysis (HTDialysis, HTD 96b). The compound was prepared into a […] stock solution with DMSO, and then 25-fold diluted with 0.05 M sodium phosphate buffer as a working solution. A blank 96-well plate was taken and preloaded with 380 μL of plasma per well. The plasma was then added with the working solution at 20 μL/well and mixed well, with the compound at a final concentration of 1 μM, containing 0.2% DMSO per well.
(§2) 100 μL of 0.05 M sodium phosphate buffer was added to the reception-side of each dialysis chamber (HTD 96b), and then 100 μL of plasma containing the compound was added to the supply-side. The dialysis chamber was covered with a plastic lid, shaken and incubated at 37° C. for 5 h.
(§3) After incubation, 25 μL of samples were taken from each of the supply-side and the reception-side of the dialysis chamber and placed in the blank 96-well plate. An equal volume of plasma was added to each of the supply-side samples while an equal volume of 0.05 M sodium phosphate buffer was added to each of the reception-side samples and mixed well. The 96-well plate was added with an acetonitrile solution containing internal standard at 200 μL per well, vortexed and shaken at 600 rpm for 10 min, and centrifuged at 5594 g for 15 min (Thermo Multifuge×3R). 50 μL of the supernatant was then transferred to a new 96-well plate, and the samples were mixed with 50 μL of ultra-pure water for LC-MS/MS analysis.
(§4) Plasma protein binding rate and free fraction were calculated using the following formulas: % binding rate=100×([supply-side concentration]5h−[reception-side concentration]5h)/[supply-side concentration]5h. % free fraction=100−% binding rate.

The target in series [3] is T1, KRAS G12C-SOS1 (Homo sapiens (Human), UniProt Q07889). The experiment in a line: Inhibition test of compounds on KRAS G12C::SOS1 binding. The conditions noted are these: GST-KRAS G12C, His-SOS1. Here is the method: The compound to be tested was prepared into a 10 mM stock solution with DMSO, and the compound was serially diluted using 1× test buffer. 0.1 μL of the compound solution with different concentrations was transferred to a 384-well plate. […] 5 μL of His-SOS1 was added to the 384-well plate, centrifuged at 1000 rpm for 1 min, and incubated at room temperature for 15 min.
After incubation, 10 μL of a mixed solution of anti-6his-Tb monoclonal antibody (Cisbio, Cat. No. 61HI2TLA) and anti-GST-XL665 monoclonal antibody (Cisbio, Cat. No. 61GSTXLA) was added to the test well, centrifuged at 1000 rpm for 1 min, and incubated at room temperature for 1 h.
After incubation, the fluorescence signal ratios at 665 nm and 615 nm were read on a multifunctional microplate reader (Perkin Elmer, Envision 2104), and the IC50 values were calculated using Graphpad 5 software.
Target sequence in this assay (Q07889 whole entry, stated change not applied): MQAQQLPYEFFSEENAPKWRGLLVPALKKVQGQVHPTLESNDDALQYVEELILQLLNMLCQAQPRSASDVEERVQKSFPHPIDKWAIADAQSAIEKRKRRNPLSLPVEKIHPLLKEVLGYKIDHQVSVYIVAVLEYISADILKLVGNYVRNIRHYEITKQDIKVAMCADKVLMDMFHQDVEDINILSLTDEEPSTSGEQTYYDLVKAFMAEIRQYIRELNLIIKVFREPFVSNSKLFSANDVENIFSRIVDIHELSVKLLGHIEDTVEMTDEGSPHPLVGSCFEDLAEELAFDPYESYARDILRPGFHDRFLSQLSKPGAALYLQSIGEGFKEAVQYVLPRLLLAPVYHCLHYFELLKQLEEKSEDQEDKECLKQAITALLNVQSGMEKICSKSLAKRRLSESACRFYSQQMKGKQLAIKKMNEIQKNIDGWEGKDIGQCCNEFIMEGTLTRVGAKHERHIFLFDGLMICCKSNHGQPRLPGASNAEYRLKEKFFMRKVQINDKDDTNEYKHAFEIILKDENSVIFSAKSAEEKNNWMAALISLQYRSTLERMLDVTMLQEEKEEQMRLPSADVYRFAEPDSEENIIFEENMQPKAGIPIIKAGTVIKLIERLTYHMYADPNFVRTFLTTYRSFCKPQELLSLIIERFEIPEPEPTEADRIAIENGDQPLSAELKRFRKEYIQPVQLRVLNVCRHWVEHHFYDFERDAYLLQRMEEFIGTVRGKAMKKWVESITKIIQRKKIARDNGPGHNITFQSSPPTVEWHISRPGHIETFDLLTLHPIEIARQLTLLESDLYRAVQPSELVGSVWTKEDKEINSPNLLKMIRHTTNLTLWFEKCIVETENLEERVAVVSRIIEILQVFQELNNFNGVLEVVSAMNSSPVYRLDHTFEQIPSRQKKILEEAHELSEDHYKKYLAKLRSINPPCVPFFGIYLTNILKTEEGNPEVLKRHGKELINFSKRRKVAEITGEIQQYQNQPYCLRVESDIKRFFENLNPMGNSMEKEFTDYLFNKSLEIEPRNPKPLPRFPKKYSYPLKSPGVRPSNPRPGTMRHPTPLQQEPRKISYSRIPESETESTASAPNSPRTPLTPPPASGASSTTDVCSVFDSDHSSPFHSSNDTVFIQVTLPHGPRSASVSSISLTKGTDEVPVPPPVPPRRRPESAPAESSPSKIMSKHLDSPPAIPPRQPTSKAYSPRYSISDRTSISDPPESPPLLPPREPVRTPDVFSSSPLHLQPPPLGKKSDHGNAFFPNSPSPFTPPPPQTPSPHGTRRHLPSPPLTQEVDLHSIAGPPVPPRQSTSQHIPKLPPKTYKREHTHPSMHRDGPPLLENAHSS

Series [4] is described as follows: Plasma protein binding by equilibrium dialysis, mouse plasma. It counts as in vitro ADME. Particulars: 37° C., read-out: Free fraction in plasma, Mouse (%). Here is the method: as §1, §2, §3, §4
A general note: In equilibrium dialysis free small molecules cross a membrane that holds back macromolecules.

The test system of series [5] is ERK phosphorylation level in DLD-1 cells. Kind of series: Inhibition of ERK phosphorylation level in DLD-1 cells (intracellular western blot). Type of series: cell-based. Particulars: Homo sapiens. Here is the method: Intracellular western blot quantitative analysis was used to detect the inhibitory level of compounds on ERK phosphorylation in DLD-1 cells.
DLD-1 cells (ATCC, CCL-221) were seeded in a T75 culture flask at 2.5×10^6 cells/flask and cultured in a RPMI 1640 medium containing 10% FBS for 2 days. On day 3, the cells were seeded on a 384-well plate, and cultured overnight at 37° C., 5% CO2. After overnight culture, the plate was added with serially diluted compounds (the final content of DMSO was 0.5%), the negative group was added with DMSO, and incubated in a 37° C., 5% CO2 incubator.
The cells were fixed, washed once with PBS, treated to disrupt membranes, and blocked at room temperature for 1 h. The blocking solution was removed. The plate was added with primary antibody (CST, Cat. No. #4370S), and incubated overnight at 4° C. The plate was washed 3 times with PBST (PBS solution added with 0.05% Tween-20) and soaked for 2 min each time. The plate was added with secondary antibody (LI-COR, Cat. No. 926-32211) and incubated at room temperature in the dark. The plate was washed 3 times with PBST and soaked for 2 min each time. The plate was centrifuged at 1000 rpm for 1 min, scanned on a two-color infrared laser imaging system (Odyssey® CLX) to read the signal.
Relative signal=800-channel signal values/700-channel signal values.
Relative expression level of ERK phosphorylation=(test compound−control compound I)/(DMSO group−control compound I)
IC50 values were calculated using Graphpad 5 software.
(In general: In western blotting, separated proteins are transferred to a membrane and probed.)

The target in series [6] is T1, KRAS G12C-SOS1. Kind of series: Inhibition test on KRAS G12C-SOS1 activity (Transcreener GDP-FI). Type of series: biochemical.
Target sequence in this assay (Q07889 564-1049 limits assumed): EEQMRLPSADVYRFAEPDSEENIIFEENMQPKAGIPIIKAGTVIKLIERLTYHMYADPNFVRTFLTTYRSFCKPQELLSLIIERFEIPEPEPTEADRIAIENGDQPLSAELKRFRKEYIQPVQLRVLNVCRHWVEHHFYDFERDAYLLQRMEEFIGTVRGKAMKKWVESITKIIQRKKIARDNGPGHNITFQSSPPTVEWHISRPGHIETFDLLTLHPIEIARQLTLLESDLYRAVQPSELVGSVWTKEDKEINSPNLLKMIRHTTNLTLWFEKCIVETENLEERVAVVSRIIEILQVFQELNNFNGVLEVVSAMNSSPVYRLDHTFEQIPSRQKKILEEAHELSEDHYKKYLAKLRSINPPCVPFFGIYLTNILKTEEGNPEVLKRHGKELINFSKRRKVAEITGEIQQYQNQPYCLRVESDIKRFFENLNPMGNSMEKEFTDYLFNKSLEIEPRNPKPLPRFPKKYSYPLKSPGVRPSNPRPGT
Method: The compound to be tested was prepared into a 10 mM stock solution with DMSO, and serially diluted using 1× test buffer (modified Tris buffer). The resulting compound solution was transferred to a 384-well plate, and the final content of DMSO was 0.25%, and an additional DMSO well without compound was set up as a high signal control.
1× test buffer (modified Tris buffer) was prepared. […] 5 μL of SOS1 and 5 μL of GTP were transferred to the 384-well plate, respectively.
GDP detection reagent was prepared using the test buffer. 10 μL of the detection reagent solution was transferred to the 384-well plate and incubated at room temperature for 2 h. After incubation, the plate was read on a multifunctional microplate reader (SpectraMax Paradigm) with an excitation wavelength of 580 nm and an emission wavelength of 620 nm. The fluorescence signal was read, and the inhibition rate was calculated as:
inhibition percentage=(high signal control−sample signal)/(high signal control−low signal control)×100, and IC50 values were calculated using Graphpad 5 software.

SMILES strings stand for the structures.

Turning to `Cc1nc(N[C@H](C)c2cccc(S(=O)(=O)C(F)F)c2C)c2cn(C3(CF)CC3)c(=O)cc2n1` [Compound I-1, (R)-4-((1-(3-((difluoromethyl)sulfonyl)-2-methylphenyl)ethyl)amino)-6-(1-(fluoromethyl)cyclopropyl)-2-methylpyrido[4,3-d]pyrimidin-7(6H)-one], the “Remaining percentage (%) of compound after incubation for 30 min” value in series [1] is on record as 76.4%. The molecule further displayed a half-life at 1 µM in series [1] of 1.46 h. For the same molecule, the fraction unbound at 5 h, 1 µM in series [2] came to 0.042; in series [4], 0.054. The IC50 on KRAS G12C-SOS1 [3] came out at 6.87 nM; in series [5], 102 nM; against KRAS G12C-SOS1 [6], 59 nM.
With `Cc1nc(N[C@H](C)c2cccc(S(=O)(=O)C(F)(F)F)c2F)c2cn(C3(CF)CC3)c(=O)cc2n1` [Compound I-2, (R)-4-((1-(2-fluoro-3-((trifluoromethyl)sulfonyl)phenyl)ethyl)amino)-6-(1-(fluoromethyl)cyclopropyl)-2-methylpyrido[4,3-d]pyrimidin-7(6H)-one], in series [1], the “Remaining percentage (%) of compound after incubation for 30 min” value is recorded as 96.5%. The same molecule gave a half-life at 1 µM in series [1] of 7.92 h. Further, the figures for the fraction unbound at 5 h, 1 µM in series [2] and in series [4] were 0.015 and 0.028, respectively. Further, the IC50 was found to be 7.73 nM on KRAS G12C-SOS1 [3], 58 nM in series [5] and 102 nM at KRAS G12C-SOS1 [6].
